# Patent US9199989B2, “N—(imidazolidin-2-ylidene)quinoline derivatives as modulators of alpha 2 adrenergic receptors” (Allergan, Inc., priority 2011, dated 2015)
# Biological target: T1, Alpha 2C adrenergic receptor (Homo sapiens, UniProt P18825)
# T1 construct: expressed in transfected cells
# T1 sequence (P18825 1-462): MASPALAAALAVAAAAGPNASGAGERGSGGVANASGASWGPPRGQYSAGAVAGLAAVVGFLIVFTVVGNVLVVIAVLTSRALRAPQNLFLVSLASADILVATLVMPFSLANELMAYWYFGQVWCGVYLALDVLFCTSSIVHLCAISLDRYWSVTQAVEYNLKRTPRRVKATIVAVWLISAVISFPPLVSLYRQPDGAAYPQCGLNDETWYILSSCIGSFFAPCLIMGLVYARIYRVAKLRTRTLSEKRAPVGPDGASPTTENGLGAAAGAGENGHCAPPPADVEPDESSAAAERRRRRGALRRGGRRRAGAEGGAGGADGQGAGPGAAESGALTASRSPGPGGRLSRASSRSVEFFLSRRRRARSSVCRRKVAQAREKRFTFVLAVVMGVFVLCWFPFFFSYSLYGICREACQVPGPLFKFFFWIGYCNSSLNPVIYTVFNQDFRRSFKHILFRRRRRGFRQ
# Experiment: RSAT (Receptor Selection and Amplification Technology) compound screening
# Assay type: cell-based
# Conditions: for EC50: cells expressing the alpha 2C adrenergic receptor, receptor-mediated growth response, read-out: Intrinsic Activity EC50, Alpha 2C; for Intrinsic Activity (efficacy), Alpha 2C: relative efficacy compared to a standard full agonist
# Description: Cells expressing each of the alpha 2 adrenergic receptors alone were incubated with the various compounds and a receptor-mediated growth response was measured. The compound's activity was expressed as its relative efficacy compared to a standard full agonist (see Table 2).
SMILES,EC50,"Intrinsic Activity (efficacy), Alpha 2C"
"c1ccc2c(N=C3NCCN3)ccnc2c1 [Compound 1, N-(imidazolidin-2-ylidene)quinolin-4-amine]",17.4 nM,(0.95)
"Clc1c(N=C2NCCN2)cnc2cccnc12 [Compound 2, 4-Chloro-N-(imidazolidin-2-ylidene)-1,5-naphthyridin-3-amine]",21 nM,(0.95)
"Cc1c(N=C2NCCN2)cnc2ccccc12 [Compound 3, N-(imidazolidin-2-ylidene)-4-methylquinolin-3-amine]",1650 nM,(0.21)
"Clc1c(N=C2NCCN2)cnc2ccccc12 [Compound 4, 4-Chloro-N-(imidazolidin-2-ylidene)quinolin-3-amine]",368 nM,(0.66)
"Brc1c(N=C2NCCN2)cnc2ccccc12 [Compound 5, 4-Bromo-N-(imidazolidin-2-ylidene)quinolin-3-amine]",1530 nM,(0.17)
"c1cnc2ncc(N=C3NCCN3)cc2n1 [Compound 6, N-(imidazolidin-2-ylidene)pyrido[2,3-b]pyrazin-7-amine]",4580 nM,(0.44)
"Cc1c(N=C2NCCN2)cnc2nccnc12 [Compound 7, N-(imidazolidin-2-ylidene)-8-methylpyrido[2,3-b]pyrazin-7-amine]",311 nM,(0.93)
